The record followed here is ChEMBL document CHEMBL1201862, “PubChem BioAssay data set” (2004).

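Growth conditions: 96-well plates. Treatment: test compound, 48 hours, 5 concentrations. Analysis: linear interpolation between bracketing concentrations; unreached endpoints set to highest concentration. GI50 marks 50% less growth.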 The source made the active and inactive calls. Rule as the data show it: active = GI50 up to about 1.1 µM and inactive = higher.

Among the test systems are NCI-H460; A498; SN12C; A549; MDA-MB-231; OVCAR-8; U-251; OVCAR-4; COLO 205; SK-MEL-5; IGROV-1; NCI-H23; SNB-19; SK-MEL-2; TK-10; SF-295; HOP-62; MCF7; KM12; OVCAR-3.
Common to all, as to test: DTP human tumour cell line panel, 48 h

`CCCCOc1ccc(/C=C/C2=[N+](CCO)CCO2)cc1`: the GI50 (usually the concentration that inhibits growth by half) in the test on NCI-H460 was 68.7 µM (inactive); in the test with A498 it was > 100 µM (inactive); with SN12C, 97.3 µM (inactive); with A549, 55.3 µM (inactive); in the test on MDA-MB-231 it was 61.9 µM (inactive); in the test on OVCAR-8 it was 70.1 µM (inactive). For the same compound, the GI50 with U-251 is 34.4 µM (inactive); with OVCAR-4 it was > 100 µM (inactive); in the test on COLO 205 it was 24.7 µM (inactive); in the test with SK-MEL-5, 68.5 µM (inactive); with IGROV-1, 85.5 µM (inactive); in the test on NCI-H23, > 100 µM (inactive). Moreover, the GI50 in the test on SNB-19 was > 100 µM (inactive); in the test with SK-MEL-2, > 100 µM (inactive); in the test with TK-10 it was > 100 µM (inactive); with SF-295, 48.5 µM (inactive); with HOP-62, > 100 µM (inactive); in the test with MCF7, 29.4 µM (inactive). Also, the figures for the GI50 with KM12 and with OVCAR-3 were 34 µM (inactive) and 61.5 µM (inactive), respectively.

As to `COc1cc(/C=C2\N=C(c3ccccc3)N(/N=C/c3cc4cc(C)ccc4nc3Cl)C2=O)cc(OC)c1OC`, the GI50 in the test with NCI-H460 is 29.4 µM (inactive); in the test with A498, 28.1 µM (inactive); with SN12C, 61.8 µM (inactive); in the test on A549, 36.4 µM (inactive); in the test on MDA-MB-231 it was 23.1 µM (inactive); in the test on OVCAR-8 it was 35.1 µM (inactive). Also, the GI50 with U-251 was 18.9 µM (inactive); in the test on OVCAR-4, 37.5 µM (inactive); with COLO 205, 24.5 µM (inactive); in the test on SK-MEL-5 it was 37.9 µM (inactive); with IGROV-1 it was 33.3 µM (inactive); in the test on SNB-19, 64.7 µM (inactive). Moreover, the GI50 is 17.9 µM (inactive) in the test with SK-MEL-2; 37.8 µM (inactive) with TK-10; 44.2 µM (inactive) with SF-295; 58.7 µM (inactive) in the test with HOP-62; 27.4 µM (inactive) in the test on MCF7; 31.8 µM (inactive) in the test on KM12. The GI50 in the test on OVCAR-3 was 26.5 µM (inactive).

In the case of `c1ccc2c(NCCCCCCNc3c4ccccc4nc4ccccc34)c3ccccc3nc2c1`, the GI50 in the test with NCI-H460 is 0.0631 µM (active); with A498 it was 1.25 µM (inactive); in the test on SN12C, 0.137 µM (active); in the test with A549, 0.29 µM (active); in the test with MDA-MB-231 it was 0.08 µM (active); in the test with OVCAR-8 it was 0.289 µM (active). Further, the GI50 with U-251 is 0.276 µM (active); in the test on OVCAR-4 it was 0.429 µM (active); in the test with COLO 205, 0.235 µM (active); with SK-MEL-5, 1.4 µM (inactive); in the test on IGROV-1, 0.166 µM (active); in the test on NCI-H23, 0.274 µM (active). For the same compound, the GI50 is 0.649 µM (active) in the test on SNB-19; 1.26 µM (inactive) with SK-MEL-2; 1.34 µM (inactive) in the test with TK-10; 0.281 µM (active) with SF-295; 0.206 µM (active) in the test with HOP-62; 0.155 µM (active) with MCF7. Besides, the GI50 was 0.215 µM (active) in the test with KM12 and 0.277 µM (active) with OVCAR-3.

With `COc1ccc(/C=C(/C(=O)c2ccc(Cl)cc2)N2C=CC=CC2=C(C#N)C#N)cc1OC`, the GI50 in the test with NCI-H460 is 12.9 µM (inactive); in the test with A498 it was 14.9 µM (inactive); in the test with SN12C, 17.4 µM (inactive); with A549, 14.4 µM (inactive); with MDA-MB-231 it was 6.24 µM (inactive); with OVCAR-8, 4.27 µM (inactive). The GI50 in the test on U-251 is 12.1 µM (inactive); with OVCAR-4 it was 6.58 µM (inactive); in the test with COLO 205, 1.58 µM (inactive); with SK-MEL-5 it was 9.25 µM (inactive); with IGROV-1, 5.09 µM (inactive); in the test on NCI-H23, 11.5 µM (inactive). Also, the GI50 in the test with SNB-19 is 15.1 µM (inactive); in the test with SK-MEL-2, 15.3 µM (inactive); in the test with TK-10, 6.32 µM (inactive); with SF-295 it was 28.5 µM (inactive); in the test with HOP-62, 20.5 µM (inactive); with MCF7 it was 3.66 µM (inactive). Moreover, the figures for the GI50 with KM12 and in the test on OVCAR-3 were 19.1 µM (inactive) and 3.72 µM (inactive), respectively.

As to `CCCCCCCCCCCCCCCCCCNc1ccn(C2OC(CO)C(O)C2O)c(=O)n1` (stereo not drawn), the GI50 was > 100 µM (inactive) with NCI-H460; > 100 µM (inactive) with A498; > 100 µM (inactive) with SN12C; 79.8 µM (inactive) with A549; > 100 µM (inactive) in the test on MDA-MB-231; > 100 µM (inactive) with OVCAR-8. In addition, the GI50 with U-251 was 38.6 µM (inactive); in the test on OVCAR-4, > 100 µM (inactive); with COLO 205, 38 µM (inactive); in the test with SK-MEL-5 it was > 100 µM (inactive); in the test on IGROV-1 it was 14.9 µM (inactive); with NCI-H23 it was > 100 µM (inactive). The GI50 is > 25.4 µM (inactive) with SNB-19; > 100 µM (inactive) in the test with SK-MEL-2; > 100 µM (inactive) in the test on TK-10; > 100 µM (inactive) in the test with SF-295; > 100 µM (inactive) in the test on HOP-62; 57.1 µM (inactive) with MCF7. In addition, the GI50 in the test on KM12 was 84.1 µM (inactive); in the test on OVCAR-3 it was > 100 µM (inactive).

In the case of `COc1ccc2nc3ccc(OC)cc3c(S(=O)(=O)Cc3ccc([N+](=O)[O-])cc3)c2c1`, the GI50 was > 100 µM (inactive) with NCI-H460; > 100 µM (inactive) in the test on A498; > 100 µM (inactive) in the test on SN12C; > 100 µM (inactive) in the test on A549; 61.7 µM (inactive) with MDA-MB-231; > 100 µM (inactive) in the test on OVCAR-8. The GI50 in the test with U-251, in the test on OVCAR-4, in the test with COLO 205, in the test on IGROV-1, with NCI-H23 and in the test with SNB-19 was > 100 µM (inactive) in each case. Moreover, the GI50 was > 100 µM (inactive) in the test with SK-MEL-2; > 100 µM (inactive) with TK-10; 61.5 µM (inactive) in the test on SF-295; 93.5 µM (inactive) with HOP-62; > 100 µM (inactive) in the test on MCF7; > 100 µM (inactive) in the test with KM12. Moreover, the GI50 with OVCAR-3 was > 100 µM (inactive).

As to `CC1ON2CCCC2[C@H]1C(=O)N1C2CC3CCC2(CS1(=O)=O)C3(C)C` (stereo partly drawn), the GI50 in the test with NCI-H460, with A498, in the test on SN12C, in the test on A549, in the test on MDA-MB-231 and in the test on OVCAR-8 was > 100 µM (inactive) throughout. In addition, the GI50 in the test with U-251, in the test with OVCAR-4, in the test with COLO 205, in the test on SK-MEL-5, in the test on IGROV-1 and in the test on NCI-H23 was > 100 µM (inactive) in each case. Further, the GI50 with SK-MEL-2, with TK-10, in the test on SF-295, with HOP-62, in the test with MCF7 and in the test on KM12 was > 100 µM (inactive) throughout. For the same compound, in the test on OVCAR-3, the GI50 was > 100 µM (inactive).

As to `COc1cc2c(cc1OC)C(=O)/C(=C/c1cc(Cl)cc(Cl)c1)C2`, the GI50 in the test with NCI-H460 is 4.73 µM (inactive); in the test with A498, 17 µM (inactive); in the test on SN12C, 5.93 µM (inactive); in the test with A549 it was 12.1 µM (inactive); with MDA-MB-231 it was 11.3 µM (inactive); in the test with U-251 it was 5.32 µM (inactive). For the same compound, the GI50 with OVCAR-4 was 17.1 µM (inactive); in the test on COLO 205, 6.21 µM (inactive); with SK-MEL-5, 2.54 µM (inactive); in the test on IGROV-1 it was 2.65 µM (inactive); with NCI-H23 it was 7.66 µM (inactive); with SNB-19, > 26.4 µM (inactive). In addition, the GI50 in the test on SK-MEL-2 was 23.5 µM (inactive); in the test with TK-10, 55.3 µM (inactive); in the test with SF-295, 2.49 µM (inactive); with HOP-62 it was 9.35 µM (inactive); with MCF7, 2.99 µM (inactive); in the test with KM12, 1.38 µM (inactive). Further, the GI50 in the test with OVCAR-3 was 3.33 µM (inactive).

For `COc1cc2c(cc1OC)CC(N=[N+]=[N-])c1cc(OC)c(OC)cc1/C=C\2` (stereo not drawn), the GI50 in the test with NCI-H460 was 43.4 µM (inactive); in the test with A498 it was > 100 µM (inactive); with SN12C it was 68.5 µM (inactive); with A549 it was 38.8 µM (inactive); in the test with MDA-MB-231, 30.8 µM (inactive); in the test on OVCAR-8, 18.4 µM (inactive). Besides, the GI50 was 51.2 µM (inactive) with U-251; 99.3 µM (inactive) in the test with OVCAR-4; 37.4 µM (inactive) in the test on COLO 205; 23.8 µM (inactive) in the test on SK-MEL-5; 50.9 µM (inactive) in the test on IGROV-1; 34 µM (inactive) with SNB-19. In addition, the GI50 was 39.5 µM (inactive) with SK-MEL-2; > 100 µM (inactive) in the test with TK-10; 31.8 µM (inactive) in the test on SF-295; 77.6 µM (inactive) in the test with HOP-62; 49.7 µM (inactive) with MCF7; 30.2 µM (inactive) with KM12. For the same compound, in the test on OVCAR-3, the GI50 was 53.7 µM (inactive).

In the case of `CCOC(=O)CCC(NC(=O)Cc1ccc(Nc2nc3ccccc3nc2-c2cccs2)cc1)C(=O)OCC` (stereo not drawn), the GI50 in the test on NCI-H460 is 81.3 µM (inactive); in the test on A498, 69.7 µM (inactive); in the test with SN12C, > 100 µM (inactive); with A549, 64.1 µM (inactive); in the test with MDA-MB-231, > 100 µM (inactive); in the test with U-251, 28.1 µM (inactive). The GI50 in the test on OVCAR-4 was 27.4 µM (inactive); in the test with COLO 205, > 100 µM (inactive); in the test with SK-MEL-5 it was 37.4 µM (inactive); with NCI-H23, 30.1 µM (inactive); in the test with SNB-19, 24.7 µM (inactive); in the test with SK-MEL-2 it was 54.3 µM (inactive). Also, the GI50 was 23.5 µM (inactive) with TK-10; 53.2 µM (inactive) in the test on SF-295; 31.9 µM (inactive) in the test on HOP-62; 41.1 µM (inactive) in the test on MCF7; > 100 µM (inactive) in the test with KM12; 34 µM (inactive) in the test on OVCAR-3.
